From patent US20240199542A1, “SUBSTITUTED PYRROLIDIN-2-ONES, SALTS THEREOF AND THEIR USE AS HERBICIDALLY ACTIVE SUBSTANCES” (Bayer Aktiengesellschaft, priority 2021, published 2024)

Experiments:
Format in all cases: in vivo
[1] = tested on: Echinochloa crus-galli (ECHCG); assay: Herbicidal pre-emergence action; conditions: 1280 g/ha, graded after ca. 3 weeks
Method in brief: (§1)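 Visual % damage versus untreated controls (100% = plants dead, 0% = like controls), scored ca. 3 weeks after treatment. Compounds (WP or EC) were sprayed onto the soil covering seeds sown in sandy loam, in water at 600 l/ha plus 0.5% additive, at 1280 g/ha or lower.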

[2] = tested on: Matricaria inodora (MATIN); assay: Herbicidal pre-emergence action; conditions: 1280 g/ha, graded after ca. 3 weeks
Method in brief: as §1

[3] = tested on: Cyperus esculentus (CYPES); assay: Herbicidal pre-emergence action; conditions: 1280 g/ha, graded after ca. 3 weeks
Method in brief: as §1

Veronica persica (VERPE) [4] = assay: Herbicidal pre-emergence action; conditions: 1280 g/ha, graded after ca. 3 weeks
Method in brief: as §1

[5] = tested on: Pharbitis purpurea (PHBPU); assay: Herbicidal pre-emergence action; conditions: 1280 g/ha, graded after ca. 3 weeks
Method in brief: as §1

Setaria viridis (SETVI) [6] = assay: Herbicidal pre-emergence action; conditions: 1280 g/ha, graded after ca. 3 weeks
Method in brief: as §1

[7] = tested on: Alopecurus myosuroides (ALOMY); assay: Herbicidal pre-emergence action; conditions: 1280 g/ha, graded after ca. 3 weeks
Method in brief: as §1

Avena fatua (AVEFA) [8] = assay: Herbicidal pre-emergence action; conditions: 1280 g/ha, graded after ca. 3 weeks
Method in brief: as §1

[9] = tested on: Echinochloa crus-galli (ECHCG); assay: Herbicidal post-emergence action; conditions: 1280 g/ha, assessed after ca. 3 weeks
Method in brief: (§2)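 Plants sprayed at single-leaf stage, 2–3 wk post-sowing; aq. suspension/emulsion of WP or EC, 0.5% additive, 600 l/ha; doses 1280 or 320 g/ha. Greenhouse ~3 wk, then visual % effect vs untreated (100% = dead).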

[10] = tested on: Alopecurus myosuroides (ALOMY); assay: Herbicidal post-emergence action; conditions: 1280 g/ha, assessed after ca. 3 weeks
Method in brief: as §2

Viola tricolor (VIOTR) [11] = assay: Herbicidal post-emergence action; conditions: 1280 g/ha, assessed after ca. 3 weeks
Method in brief: as §2

Stellaria media (STEME) [12] = assay: Herbicidal post-emergence action; conditions: 1280 g/ha, assessed after ca. 3 weeks
Method in brief: as §2

[13] = tested on: Polygonum convolvulus (POLCO); assay: Herbicidal post-emergence action; conditions: 1280 g/ha, assessed after ca. 3 weeks
Method in brief: as §2

[14] = tested on: Amaranthus retroflexus (AMARE); assay: Herbicidal post-emergence action; conditions: 1280 g/ha, assessed after ca. 3 weeks
Method in brief: as §2

Avena fatua (AVEFA) [15] = assay: Herbicidal post-emergence action; conditions: 1280 g/ha, assessed after ca. 3 weeks
Method in brief: as §2

[16] = tested on: Matricaria inodora (MATIN); assay: Herbicidal post-emergence action; conditions: 1280 g/ha, assessed after ca. 3 weeks
Method in brief: as §2

[17] = tested on: Lolium multiflorum (LOLMU); assay: Herbicidal post-emergence action; conditions: 1280 g/ha, assessed after ca. 3 weeks
Method in brief: as §2

Veronica persica (VERPE) [18] = assay: Herbicidal post-emergence action; conditions: 1280 g/ha, assessed after ca. 3 weeks
Method in brief: as §2

[19] = tested on: Pharbitis purpurea (PHBPU); assay: Herbicidal post-emergence action; conditions: 1280 g/ha, assessed after ca. 3 weeks
Method in brief: as §2

Viola tricolor (VIOTR) [20] = assay: Herbicidal pre-emergence action; conditions: graded after ca. 3 weeks
Method in brief: as §1

[21] = tested on: Polygonum convolvulus (POLCO); assay: Herbicidal pre-emergence action; conditions: 1280 g/ha, graded after ca. 3 weeks
Method in brief: as §1

[22] = tested on: Amaranthus retroflexus (AMARE); assay: Herbicidal pre-emergence action; conditions: 1280 g/ha, graded after ca. 3 weeks
Method in brief: as §1

[23] = tested on: Lolium multiflorum (LOLMU); assay: Herbicidal pre-emergence action; conditions: 1280 g/ha, graded after ca. 3 weeks
Method in brief: as §1

Stellaria media (STEME) [24] = assay: Herbicidal pre-emergence action; conditions: 1280 g/ha, graded after ca. 3 weeks
Method in brief: as §1

Setaria viridis (SETVI) [25] = assay: Herbicidal post-emergence action; conditions: 1280 g/ha, assessed after ca. 3 weeks
Method in brief: as §2

Zea Mays (ZEAMX) [26] = assay: Pre-emergence effects on crop plants; conditions: 320 g/ha, crop plant
Description: (§3) Seeds of mono- and dicotyledonous weed plants and crop plants were sown, in plastic or organic planting pots, in sandy loam and covered with soil. The compounds according to the invention, formulated in the form of wettable powders (WP) or as emulsifiable concentrates (EC), were applied to the surface of the covering soil as aqueous suspension or emulsion, with the addition of 0.5% of an additive, at an application rate of 600 1 of water/ha (converted).
(§4) Following treatment, the pots were placed in a greenhouse and kept under optimum growth conditions for the test plants. The visual grading of the damage to the test plants was carried out after ca. 3 weeks in comparison to untreated controls (herbicidal effect in percent (%): 100% effect=plants have died off, 0% effect=as control plants).
(§5) Tables C1 to C3 below show the effects of selected compounds of the general formula (I) according to table 1 on various crop plants and an application rate corresponding to 320 g/ha or below obtained by the experimental procedure mentioned above in biology section A.

Glycine max (GLXMA) [27] = assay: Pre-emergence effects on crop plants; conditions: 320 g/ha, crop plant
Description: as §3, §4, §5

Brassica napus (BRSNW) [28] = assay: Pre-emergence effects on crop plants; conditions: 320 g/ha, crop plant
Description: as §3, §4, §5

Zea Mays (ZEAMX) [29] = assay: Post-emergence effects on crop plants; conditions: 320 g/ha, crop plant
Method in brief: (§6)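 Greenhouse-grown plants in sandy loam sprayed post-emergence at single-leaf stage (2–3 weeks after sowing) with WP or EC formulations plus 0.5% additive, 600 l water/ha, at rates of 320 g/ha or below. Visual damage scored ca. 3 weeks later versus untreated controls, 0% (as control) to 100% (dead).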

Glycine max (GLXMA) [30] = assay: Post-emergence effects on crop plants; conditions: 320 g/ha, crop plant
Method in brief: as §6

Brassica napus (BRSNW) [31] = assay: Post-emergence effects on crop plants; conditions: application rate 320 g/ha, crop plant Brassica napus (BRSNW)
Method in brief: as §6

[32] = tested on: Digitaria sanguinalis (DIGSA); assay: Herbicidal pre-emergence action; conditions: 320 g/ha, graded after ca. 3 weeks
Method in brief: as §1

[33] = tested on: Digitaria sanguinalis (DIGSA); assay: Herbicidal post-emergence action; conditions: 320 g/ha, assessed after ca. 3 weeks
Method in brief: as §2

Lolium rigidum (LOLRI) = assay: Herbicidal post-emergence action; conditions: 320 g/ha, assessed after ca. 3 weeks
Method in brief: as §2

Row | Compound | Pre-emergence activity against ECHCG [1] [%] | Pre-emergence activity against CYPES [3] [%] | Pre-emergence activity against SETVI (Setaria viridis (SETVI) [6]) [%] | Pre-emergence activity against ALOMY [7] [%] | Pre-emergence activity against AVEFA (Avena fatua (AVEFA) [8]) [%] | Post-emergence activity against ECHCG [9] [%] | Post-emergence activity against ALOMY [10] [%] | Post-emergence activity against STEME (Stellaria media (STEME) [12]) [%] | Post-emergence activity against AVEFA (Avena fatua (AVEFA) [15]) [%] | Pre-emergence activity against POLCO [21] [%] | also measured
1 | O=C(CC1CCC(=O)N1Cc1cccc(F)c1F)OCCOc1ccc(Cl)cc1 (racemic) [Example I-033] | 80 | 80 | 80 | 90 | 100 | 80 | 80 |  |  |  | Pre-emergence activity against MATIN [2]: 80%; Pre-emergence activity against VERPE (Veronica persica (VERPE) [4]): 90%; Pre-emergence activity against PHBPU [5]: 80%
2 | CC1CC(=O)C(C(=O)CC2CCC(=O)N2Cc2cccc(F)c2F)C(=O)C1 (racemic) [Example I-180] | 90 |  |  | 80 | 90 | 90 |  | 90 | 80 |  | Post-emergence activity against VIOTR (Viola tricolor (VIOTR) [11]): 80%; Post-emergence activity against POLCO [13]: 80%; Post-emergence activity against AMARE [14]: 90%
3 | CC1(C)C(=O)C(C(=O)CC2CCC(=O)N2Cc2cccc(F)c2F)C(=O)C(C)(C)C1=O (racemic) [Example I-184] |  |  |  |  |  |  | 80 | 80 | 80 |  | Pre-emergence activity against MATIN [2]: 80%; Post-emergence activity against MATIN [16]: 90%; Post-emergence activity against LOLMU [17]: 80%; Post-emergence activity against VERPE (Veronica persica (VERPE) [18]): 80%; Post-emergence activity against PHBPU [19]: 90%; Post-emergence activity against AMARE [14]: 80%
4 | O=C(O)CC1CCC(=O)N1Cc1cccc(F)c1F (single isomer, unassigned) [Example I-065] |  |  |  |  | 80 |  |  |  | 90 | 100 | Pre-emergence activity against VIOTR (Viola tricolor (VIOTR) [20]; 1280 g/ha): 100%; Post-emergence activity against PHBPU [19]: 80%
5 | O=C(CC1CCC(=O)N1Cc1cccc(F)c1F)NCc1ccccc1 (racemic) [Example I-055] |  | 100 |  |  | 80 |  |  |  |  |  | Pre-emergence activity against AMARE [22]: 100%
6 | Cn1nnnc1NC(=O)CC1CCC(=O)N1Cc1cccc(F)c1F (racemic) [Example I-004] | 80 | 100 | 80 | 90 | 100 | 100 | 90 | 80 | 100 | 80 | Pre-emergence activity against LOLMU [23]: 90%; Post-emergence activity against LOLMU [17]: 90%; Post-emergence activity against VERPE (Veronica persica (VERPE) [18]): 80%
7 | CC1(C)CC(=O)C(C(=O)CC2CCC(=O)N2Cc2cccc(F)c2F)C(=O)C1 (racemic) [Example I-179] |  |  |  |  | 90 | 90 |  | 80 | 90 |  | Pre-emergence activity against STEME (Stellaria media (STEME) [24]): 80%; Post-emergence activity against SETVI (Setaria viridis (SETVI) [25]): 80%
8 | O=C(CC1CCC(=O)N1Cc1cccc(F)c1F)OCCOc1ccc(F)cc1 (racemic) [Example I-007] | 90 | 90 | 90 | 90 | 100 | 90 | 80 |  | 90 | 90 | pre-emergence activity against ZEAMX (crop damage) (Zea Mays (ZEAMX) [26]): 0%; pre-emergence activity against GLXMA (crop damage) (Glycine max (GLXMA) [27]): 0%; pre-emergence activity against BRSNW (crop damage) (Brassica napus (BRSNW) [28]): 0%; post-emergence activity against ZEAMX (crop damage) (Zea Mays (ZEAMX) [29]): 0%; post-emergence activity against GLXMA (crop damage) (Glycine max (GLXMA) [30]): 0%; post-emergence activity against BRSNW (Brassica napus (BRSNW) [31]): 0%; Pre-emergence activity against VIOTR (Viola tricolor (VIOTR) [20]; 320 g/ha): 90%; Pre-emergence activity against LOLMU [23]: 90%; Pre-emergence activity against VERPE (Veronica persica (VERPE) [4]): 90%; Pre-emergence activity against STEME (Stellaria media (STEME) [24]): 80%; Pre-emergence activity against PHBPU [5]: 80%; Pre-emergence activity against DIGSA [32]: 90%; Post-emergence activity against DIGSA [33]: 90%; Post-emergence activity against LOLRI (Lolium rigidum (LOLRI)): 80%
